According to ChEMBL document CHEMBL5053556, “Design, Synthesis, and Biological Evaluation of a Novel Series of Teriflunomide Derivatives as Potent Human Dihydroorotate Dehydrogenase Inhibitors for Malignancy Treatment” (J Med Chem, 2021):
In brackets after ≈: the same amount, converted by molar mass.

Legend:
[1] = target: T1, Dihydroorotate dehydrogenase (quinone), mitochondrial (Homo sapiens, UniProt Q02127); conditions: dose 100.0 nM, time 30.0 min
[2] = target: T1, Dihydroorotate dehydrogenase (quinone), mitochondrial
Description: Inhibition of human DHODH using dihydroorotate substrate preincubated for 30 mins followed by substrate addition by DCIP based microplate reader analysis

Raji [3] = experiment: Antiproliferative activity against human Raji cells assessed as cell growth inhibition incubated for 96 hrs by MTT assay; format: functional, cell-based
L02 = experiment: cells; format: ADME, cell-based; conditions: Homo sapiens, L02, 96 h
Description: Cytotoxicity against human L02 cells assessed as cell growth inhibition incubated for 96 hrs by MTT assay

in vitro = conditions: human, L02 cells and Raji cells
Description: Selectivity index, ratio of IC50 for human L02 cells to IC50 for human Raji cells

physchem = conditions: aqueous
Description: Aqueous solubility of compound by UPLC method

Mus musculus = experiment: Toxicity in NOD-SCID mouse xenografted with human Raji cells assessed as body weight loss at 1.5 mg/kg, po administered for 25 days; format: organism-based; conditions: in vivo, 600 h, time 25 day
Raji [4] = experiment: animal or person; conditions: Mus musculus, po, 600 h, read-out: TGI
Description: Antitumor activity against human Raji cells xenografted in NOD-SCID mouse assessed as tumor growth inhibition at 1.5 mg/kg, po administered for 25 days

T1 sequence (Q02127 whole entry): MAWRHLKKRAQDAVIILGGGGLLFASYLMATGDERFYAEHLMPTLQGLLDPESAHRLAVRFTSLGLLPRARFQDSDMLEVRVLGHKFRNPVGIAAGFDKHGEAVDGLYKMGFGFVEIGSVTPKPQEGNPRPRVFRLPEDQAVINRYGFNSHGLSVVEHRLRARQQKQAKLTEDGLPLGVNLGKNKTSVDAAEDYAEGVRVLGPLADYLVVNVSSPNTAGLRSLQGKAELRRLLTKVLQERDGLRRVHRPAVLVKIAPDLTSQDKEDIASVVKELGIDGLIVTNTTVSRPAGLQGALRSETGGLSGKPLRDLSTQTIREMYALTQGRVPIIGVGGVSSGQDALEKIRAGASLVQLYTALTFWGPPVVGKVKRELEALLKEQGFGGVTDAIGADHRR

SMILES	inhibition [1]	IC50 [2]	IC50 (Raji [3])	IC50 (L02)	selectivity ratio (in vitro)	solubility (physchem)	Activity (Mus musculus)	inhibition in vivo at 1.5 mg/kg (Raji [4])
C/C(O)=C(\C#N)C(=O)Nc1cc(OC(C)C)c(C(=O)Nc2cccc(F)c2)cc1F	22.1%	–	–	–	–	–	–	–
C/C(O)=C(\C#N)C(=O)Nc1cc(OC(C)C)c(C(=O)Nc2c(Cl)cccc2Cl)cc1F	89.4%	13.1 nM	450 nM	2620 nM	5.8	–	–	–
C/C(O)=C(\C#N)C(=O)Nc1cc(OC(C)C)c(C(=O)Nc2c(F)cccc2F)cc1F	70.5%	36.2 nM	–	–	–	–	–	–
C/C(O)=C(\C#N)C(=O)Nc1cc(O[C@@H](C)C(F)(F)F)c(C(=O)Nc2c(F)cccc2Br)cc1F	93.1%	6.8 nM	13.9 nM	526 nM	37.7	1700 µg/mL (≈ 3.1 mM)	–	–
CCn1c(CO)nn(-c2cc(O[C@@H](C)C(F)(F)F)c(C(=O)Nc3c(F)cccc3Cl)cc2F)c1=O	–	–	0.4 nM	1.1 nM	–	–	Toxic	79%
C/C(O)=C(\C#N)C(=O)Nc1cc(OC(C)C)c(C(=O)Nc2ccccc2Br)cc1F	68.5%	41.5 nM	–	–	–	–	–	–
C/C(O)=C(\C#N)C(=O)Nc1cc(OC(C)C)c(C(=O)Nc2c(F)cccc2Br)cc1F	85.4%	18.2 nM	347 nM	2100 nM	6.1	–	–	–
CCOc1cc(NC(=O)/C(C#N)=C(/C)O)c(F)cc1C(=O)Nc1c(F)cccc1Cl	63.8%	44.1 nM	–	–	–	–	–	–
C/C(O)=C(\C#N)C(=O)Nc1cc(O[C@@H](C)C(F)(F)F)c(C(=O)Nc2c(Br)cccc2Br)cc1F	96.9%	7.3 nM	35.1 nM	426 nM	13.1	2100 µg/mL (≈ 3.45 mM)	–	–
C/C(O)=C(\C#N)C(=O)Nc1cc(OC(C)C)c(C(=O)Nc2ccc(F)c(Cl)c2)cc1F	4.9%	–	–	–	–	–	–	–
COc1cc(NC(=O)/C(C#N)=C(/C)O)c(F)cc1C(=O)Nc1c(F)cccc1F	27.4%	–	–	–	–	–	–	–
C/C(O)=C(\C#N)C(=O)Nc1cc(OC(C)C)c(C(=O)Nc2ccc(F)cc2)cc1F	7.5%	–	–	–	–	–	–	–
C/C(O)=C(\C#N)C(=O)Nc1cc(O[C@@H](C)C(F)(F)F)c(C(=O)Nc2c(Cl)cccc2Br)cc1F	94.4%	6.2 nM	32.2 nM	506 nM	15.8	2900 µg/mL (≈ 5.14 mM)	–	–
C/C(O)=C(\C#N)C(=O)Nc1cc(OC(C)C)c(C(=O)Nc2ccccc2Cl)cc1F	62.7%	47.2 nM	–	–	–	–	–	–
